Literature values as cited in patent publication US7988998B2, “Sustained-release tramadol formulations with 24-hour efficacy” (Labopharm Inc., priority 2002, dated 2011).
Structures can show the parent of a compound that is named as a salt.

Conditions: patients receiving tramadol HCl

Q: For `COc1cccc(C2(O)CCCCC2CN(C)C)c1` (stereo not shown) [tramadol HCl, Tramadol hydrochloride], which “estimated incidence of seizures” value is on record?
A: Its value is “less than 1%”.
